Earlier results as cited in PubChem BioAssay AID1259409 (Chemical Carcinogenesis Research Information System (CCRIS), 2018).
Values joined by “and” are separate entries in the source; they are usually repeats but may differ in a detail not shown here. Equal values may be shown once.

System: rodent chemically induced tumor inhibition, incidence and multiplicity
Assay: CCRIS tumor inhibitor studies
Conditions: Promoter: NONE USED

## O=c1cc(-c2ccccc2)oc2ccc3ccccc3c12
Carcinogen: N-NITROSOETHYLUREA, 759-73-9, Dose [Inhibitor]: 0, 150 MG/KG IN OLIVE OIL 48 HR PRIOR TO CARCINOGEN DOSE (STUDY DURATION: 8 WK), Route [Inhibitor]: INTRAPERITONEAL, Species: MOUSE, Strain/Sex: DBA/FEMALE, Target Tissue: Type of Lesion: LUNG: TUMOR, Dose [Carcinogen]: 8 MG/KG IN 0.22 MOLAR SODIUM CITRATE BUFFER 1/WK FOR 4 WK
  tumour outcome (control, treated, inhibition, significance): 12/34 (35%), 15/34 (44%), -26%, not calculated
Carcinogen: N-NITROSOETHYLUREA, 759-73-9, Dose [Inhibitor]: 0, 150 MG/KG IN OLIVE OIL 48 HR PRIOR TO CARCINOGEN DOSE (STUDY DURATION: 8 WK), Route [Inhibitor]: INTRAPERITONEAL, Species: MOUSE, Strain/Sex: SWISS/FEMALE, Target Tissue: Type of Lesion: LUNG: TUMOR, Dose [Carcinogen]: 8 MG/KG IN 0.22 MOLAR SODIUM CITRATE BUFFER 1/WK FOR 4 WK
  tumour outcome (control, treated, inhibition, significance): 26/27 (96%), 12/16 (75%), 22%, not calculated
Dose [Inhibitor]: 0, 0.015% IN DIET FOR 9 WK BEGINNING 1 WK PRIOR TO AND CONTINUING DURING CARCINOGEN TREATMENT (STUDY DURATION: 42 WK), Route [Inhibitor]: ORAL, Species: RAT, Strain/Sex: F344/MALE, Target Tissue: Type of Lesion: LIVER: HEPATOMA, Dose [Carcinogen]: 25 UG 5 D/WK FOR 8 WK
  tumour outcome (control, treated, inhibition, significance): 15/15 (100%), 4/16 (25%), 75%, not calculated and 15/15 (100%), 5/15 (31%), 69%, not calculated
Dose [Inhibitor]: 0, 50 PPM IN DIET BEGINNING 8 WK PRIOR TO CARCINOGEN AND CONTINUING FOR 6 WK POST CARCINOGEN (STUDY DURATION: 68 WK), Route [Inhibitor]: ORAL, Species: FISH, Strain/Sex: RAINBOW TROUT, Target Tissue: Type of Lesion: LIVER: HEPATOCELLULAR CARCINOMA, Dose [Carcinogen]: 20 PPB IN DIET FOR 2 WK
  tumour outcome (control, treated, inhibition, significance): 43/118 (36%), 20/117 (17%), 53%, p<0.05
Dose [Inhibitor]: 0, 500 PPM IN DIET BEGINNING 8 WK PRIOR TO CARCINOGEN AND CONTINUING FOR 6 WK POST CARCINOGEN (STUDY DURATION: 68 WK), Route [Inhibitor]: ORAL, Species: FISH, Strain/Sex: RAINBOW TROUT, Target Tissue: Type of Lesion: LIVER: HEPATOCELLULAR CARCINOMA, Dose [Carcinogen]: 20 PPB IN DIET FOR 2 WK
  tumour outcome (control, treated, inhibition, significance): 43/118 (36%), 7/120 (6%), 84%, p<0.01
Dose [Inhibitor]: 0.005% IN DIET BEGINNING 4 WK PRIOR TO CARCINOGEN DOSE AND CONTINUING FOR 4 ADDITIONAL WK CONCURRENTLY WITH CARCINOGEN D, Route [Inhibitor]: ORAL, Species: FISH, Strain/Sex: MT. SHASTA RAINBOW TROUT, Target Tissue: Type of Lesion: LIVER: CHOLANGIOCELLULAR CARCINOMA OR ADENOMA, Dose [Carcinogen]: 10 PPB IN DIET FOR 4 WK
  outcome: 0/166, 1/177, 0%
Dose [Inhibitor]: 0.005% IN DIET BEGINNING 4 WK PRIOR TO CARCINOGEN DOSE AND CONTINUING FOR 4 ADDITIONAL WK CONCURRENTLY WITH CARCINOGEN D, Route [Inhibitor]: ORAL, Species: FISH, Strain/Sex: MT. SHASTA RAINBOW TROUT, Target Tissue: Type of Lesion: LIVER: HEPATOCELLULAR CARCINOMA OR MIXED CARCINOMA OR HEPATOCELLULAR ADENOMA, Dose [Carcinogen]: 10 PPB IN DIET FOR 4 WK
  tumour outcome (control, treated, inhibition, significance): 39/166 (23%), 7/177 (4%), 83%, p<0.01
Dose [Inhibitor]: 0.005% IN DIET FOR 8 WK (STUDY DURATION: 1 YR), Route [Inhibitor]: ORAL, Species: FISH, Strain/Sex: MT. SHASTA RAINBOW TROUT, Target Tissue: Type of Lesion: LIVER: CHOLANGIOCELLULAR CARCINOMA OR ADENOMA, Dose [Carcinogen]: 0.5 PPM AQUEOUS SOLUTION FOR 30 MIN EXPOSURE OF EMBRYOS 21 D AFTER FERTILIZATION
  tumour outcome (control, treated, inhibition, significance): 8/182 (4%), 7/175 (4%), 0%, not calculated
Dose [Inhibitor]: 0.05% IN DIET BEGINNING 4 WK PRIOR TO CARCINOGEN DOSE AND CONTINUING FOR 4 ADDITIONAL WK CONCURRENTLY WITH CARCINOGEN DO, Route [Inhibitor]: ORAL, Species: FISH, Strain/Sex: MT. SHASTA RAINBOW TROUT, Target Tissue: Type of Lesion: LIVER: CHOLANGIOCELLULAR CARCINOMA OR ADENOMA, Dose [Carcinogen]: 10 PPB IN DIET FOR 4 WK
  outcome: 0/166 (0%), 0/172 (0%)
Dose [Inhibitor]: 0.05% IN DIET BEGINNING 4 WK PRIOR TO CARCINOGEN DOSE AND CONTINUING FOR 4 ADDITIONAL WK CONCURRENTLY WITH CARCINOGEN DO, Route [Inhibitor]: ORAL, Species: FISH, Strain/Sex: MT. SHASTA RAINBOW TROUT, Target Tissue: Type of Lesion: LIVER: HEPATOCELLULAR CARCINOMA OR MIXED CARCINOMA OR HEPATOCELLULAR ADENOMA, Dose [Carcinogen]: 10 PPB IN DIET FOR 4 WK
  tumour outcome (control, treated, inhibition, significance): 39/166 (23%), 1/172 (0.6%), 97%, p<0.01
